These results are taken from patent US5843950A, “1,4-dihydropyridine compound and pharmaceutical composition containing the same” (Nikken Chemicals Co., Ltd., priority 1994, dated 1998).

The test system of experiment [1] is KCl contraction in rat arteries (thoracic aorta). The experiment in a line: Action easing KCl contraction in rat arteries (thoracic aorta ring). The settings on record: read-out: IC50 value (50% inhibitory concentration of hyperpotassium contraction), Test Example 7, Table 7, 37° C. The procedure: Action easing KCl contraction in rat arteries
The specimen was stabilized for approximately 60 minutes, then a potassium chloride solution was added to the Magnus tube to give a final concentration of […]. The positive control compound or the compound of the present invention was cumulatively added from 1×10^-10 M to 1×10^-4 M when the contraction reaction occurring at that time reached equilibrium. The contraction force was recorded by an FD-pickup (made by Nihon Kodensha) via a polygraph (made by Nihon Kodensha).

The test system of experiment [2] is VCR resistant murine leukemia (P388/VCR) cells. The experiment in a line: In vivo effect for overcoming resistance to vincristine in VCR resistant murine leukemia (P388/VCR) bearing mice. Set-up: species or system CDF1 male mice. An excerpt: In vivo test of action suppressing proliferation of cancer cells by concomitant use with anti-cancer drug
The number of survival days were found and the life prolonging rate (T/C) with respect to the controls was found. The effect in overcoming resistance to an anti-cancer drug (T/V) was found by the following formula.
Effect for overcoming resistance to an anti-cancer drug (T/V) %
=[Life prolonging rate (T/C) in case of concomitant use of VCR and the compound of the present invention]/[Life prolonging rate (T/C) in case of VCR alone]×100
Using Compound 18 to Compound 22 and Compound 32, the same procedure was followed as in Test Example 5 to find the effect for overcoming resistance to an anti-cancer drug in vincristine (VCR) resistant murine leukemia cell bearing mice.

The subject of another experiment is TxA2 synthesis. Put plainly: TxA2 synthesis inhibiting action test (human blood platelet microsomes). The settings on record: prostaglandin H2. It is filed as biochemical. The protocol:
TxA2 Synthesis Inhibiting Action Test
One ml of a buffer (20 mM Tris-HCl buffer, 1 mM EDTA, pH 7.5) containing human blood platelet microsomes (50 μg protein/ml) and the test compound (final concentration 10^-7 M) was agitated, then incubated at 0° C. for 30 minutes. To this was added prostaglandin H2 (100 ng/2 μl). This was incubated at 23° C. for 3 minutes to cause a reaction. Next, 1M hydrochloric acid was added to make the solution acidic and stop the reaction, then this was neutralized by 1M Tris-Base and centrifuged at 3000 rpm for 20 minutes. The amount of the TxB2 in the supernatant was measured by the EIA method (Cayman Co. kit).

For experiment [3], the system named is KCl contraction in rat arteries (thoracic aorta). Put plainly: Action easing KCl contraction in rat arteries (thoracic aorta ring). The settings on record: read-out: IC50 value (50% inhibitory concentration of hypercalcemic contraction), Test Example 8, Table 8.
[4] abbreviates: Test Example 5, Table 5, T/C with VCR + compound over T/C with VCR alone ×100.
The mark [5] stands for this setting: Test Example 5, Table 5, VCR 100 μg/kg i.p. 5 days with compound 100 mg/kg (verapamil 60, nicardipine 75 mg/kg).
Where [6] appears, read: Test Example 6, Table 6, same procedure as Test Example 5.

Where two headings read alike, the source gives them in different places.

Take `COCCOC(=O)C1=C(C)NC(C)=C(C(=O)OC(C)C)C1c1cccc([N+](=O)[O-])c1` (stereo not drawn) [Nimodipine, reference compound]: the IC50 in experiment [1] was found to be 0.08 µM.
As to `COc1ccc(CCN(C)CCCC(C#N)(c2ccc(OC)c(OC)c2)C(C)C)cc1OC` (stereo not drawn) [Verapamil, verapamil, reference compound], the IC50 in experiment [1] worked out at 2.35 µM. In experiment [2] (setting [4]), the “Effect for overcoming resistance T/V (%)” value was 127%. In experiment [2] (setting [5]), the “Life prolonging rate T/C (%)” value is listed as 136% and the “Mean days of survival” value was determined as 13.6 days.
In the case of `CC1=C(C(=O)OCCCc2cccnc2)C(CC(C)(C)C)C(C(=O)OCCCc2cccnc2)=C(C)N1` [Compound 4, 2,6-dimethyl-4-(2,2-dimethylpropyl)-1,4-dihydropyridine-3,5-dicarboxylic acid bis[3-(3-pyridyl)propyl]ester], the “TxA2 synthesis inhibiting action Rate of suppression at 10^-7 mol (%)” value (shortened to “TxA2 synthesis inhibiting action Rate … (%)”) with TxA2 synthesis worked out at 49.1%. In addition, the IC50 in experiment [1] is 20.5 µM. Besides, in experiment [2] (setting [4]), the “Effect for overcoming resistance T/V (%)” value is 136%. In experiment [2] (setting [5]), the “Life prolonging rate T/C (%)” value was 145% and the “Mean days of survival” value is 14.5 days.
For the compound `CCC(CC)C1C(C(=O)OCCCc2cccnc2)=C(C)NC(C)=C1C(=O)OCCCc1cccnc1` [Compound 20, 2,6-dimethyl-4-(1-ethylpropyl)-1,4-dihydropyridine-3,5-dicarboxylic acid bis[3-(3-pyridyl)propyl]ester], the IC50 in experiment [3] was 4.2 µM. In experiment [2] (setting [6]), the “Effect for overcoming resistance T/V (%)” value amounted to 150%, the “Life prolonging rate T/C (%)” value turned out to be 148% and the “Mean days of survival” value worked out at 15.8 days.
In the case of `CC1=C(C(=O)OCCCc2cccnc2)C(CC2CCCC(C)(C)C2)C(C(=O)OCCCc2cccnc2)=C(C)N1` (stereo not drawn) [Compound 33, 2,6-dimethyl-4-(3,3-dimethylcyclohexylmethyl)-1,4-dihydropyridine-3,5-dicarboxylic acid bis[3-(3-pyridyl)propyl]ester], the IC50 in experiment [3] is 6.2 µM.
As for `CCCC1C(C(=O)OCCCc2cccnc2)=C(C)NC(C)=C1C(=O)OCCCc1cccnc1` [Compound 2, 2,6-dimethyl-4-n-propyl-1,4-dihydropyridine-3,5-dicarboxylic acid bis[3-(3-pyridyl)propyl]ester], the “TxA2 synthesis inhibiting action Rate … (%)” value in the experiment on TxA2 synthesis was determined as 72.0%. Moreover, the IC50 in experiment [1] is above 30 µM.
For the compound `CC1=C(C(=O)OCCCc2cccnc2)CC(C(=O)OCCCc2cccnc2)=C(C)N1` [Control 1, reference compound], in the experiment with TxA2 synthesis, the “TxA2 synthesis inhibiting action Rate … (%)” value is on record as 74.7%.
As for `CCCCC(CC)C1C(C(=O)OCCCc2cccnc2)=C(C)NC(C)=C1C(=O)OCCCc1cccnc1` (stereo not drawn) [Compound 21, 2,6-dimethyl-4-(1-ethylpentyl)-1,4-dihydropyridine-3,5-dicarboxylic acid bis[3-(3-pyridyl)propyl]ester], the IC50 in experiment [3] is 7 µM. In experiment [2] (setting [6]), the “Effect for overcoming resistance T/V (%)” value worked out at 138%, the “Life prolonging rate T/C (%)” value turned out to be 140% and the “Mean days of survival” value worked out at 15.0 days.
Consider `CCCCCC#CC1C(C(=O)OCCCc2cccnc2)=C(C)NC(C)=C1C(=O)OCCCc1cccnc1` [Compound 32, 2,6-dimethyl-4-(1-heptynyl)-1,4-dihydropyridine-3,5-dicarboxylic acid bis[3-(3-pyridyl)propyl]ester], for which the IC50 in experiment [3] is 10.5 µM. In experiment [2] (setting [6]), the “Effect for overcoming resistance T/V (%)” value is reported as 133%, the “Life prolonging rate T/C (%)” value came to 136% and the “Mean days of survival” value was determined as 14.5 days.
In the case of `CCC(C)C1C(C(=O)OCCCc2cccnc2)=C(C)NC(C)=C1C(=O)OCCCc1cccnc1` (stereo not drawn) [Compound 19, 2,6-dimethyl-4-(1-methylpropyl)-1,4-dihydropyridine-3,5-dicarboxylic acid bis[3-(3-pyridyl)propyl]ester], in experiment [2] (setting [6]), the “Effect for overcoming resistance T/V (%)” value turned out to be 173%, the “Life prolonging rate T/C (%)” value stood at 176% and the “Mean days of survival” value was 18.8 days.
For `CCCCCCCCC1C(C(=O)OCCC#N)=C(C)NC(C)=C1C(=O)OCCCc1cccnc1` (stereo not drawn) [Compound 14, 2,6-dimethyl-4-n-octyl-1,4-dihydropyridine-3,5-dicarboxylic acid 3-(2-cyanoethyl) ester, 5-[3-(3-pyridyl)propyl]ester], the IC50 in experiment [3] is 8.4 µM.
For `CC1=C(C(=O)OCCCc2cccnc2)C(C=Cc2ccco2)C(C(=O)OCCCc2cccnc2)=C(C)N1` [Compound 10, 2,6-dimethyl-4-(2-(2-furyl)ethenyl)-1,4-dihydropyridine-3,5-dicarboxylic acid bis[3-(3-pyridyl)propyl]ester], the IC50 in experiment [1] is above 30 µM.
With `CCCCCCCCC1C(C(=O)OCCN2CCN(Cc3cccnc3)CC2)=C(C)NC(C)=C1C(=O)OCCN1CCN(Cc2cccnc2)CC1` [Compound 23, 2,6-dimethyl-4-n-octyl-1,4-dihydropyridine-3,5-dicarboxylic acid bis[2-(4-(3-pyridylmethyl)piperazin-1-yl)ethyl]ester], in experiment [2] (setting [4]), the “Effect for overcoming resistance T/V (%)” value stood at 123%. In experiment [2] (setting [5]), the “Life prolonging rate T/C (%)” value stood at 132% and the “Mean days of survival” value amounted to 13.2 days.
As to `CC(C)=CCCC(C)CC1C(C(=O)OCCCc2cccnc2)=C(C)NC(C)=C1C(=O)OCCCc1cccnc1` (stereo not drawn) [Compound 11, 2,6-dimethyl-4-(2,6-dimethyl-5-heptenyl)-1,4-dihydropyridine-3,5-dicarboxylic acid bis[3-(3-pyridyl)propyl]ester], in experiment [1], the IC50 is above 30 µM. In addition, in experiment [2] (setting [4]), the “Effect for overcoming resistance T/V (%)” value came out at 128%. Besides, in experiment [2] (setting [5]), the “Life prolonging rate T/C (%)” value came to 137% and the “Mean days of survival” value is 13.7 days.
Turning to `CC1=C(C(=O)OCCCc2cccnc2)C(c2ccc(C(=O)O)cc2)C(C(=O)OCCCc2cccnc2)=C(C)N1` [Control 3, reference compound], in the experiment with TxA2 synthesis, the “TxA2 synthesis inhibiting action Rate … (%)” value came out at 37.6%.
`CC1=C(C(=O)OCCCc2cccnc2)C(C(C)C)C(C(=O)OCCN2CCN(Cc3cccnc3)CC2)=C(C)N1` (stereo not drawn) [Compound 28, 2,6-dimethyl-4-isopropyl-1,4-dihydropyridine-3,5-dicarboxylic acid 3-[2-(4-(3-pyridylmethyl)piperazin-1-yl)ethyl]ester, 5-[3-(3-pyridyl)propyl]ester]: the “TxA2 synthesis inhibiting action Rate … (%)” value in the experiment with TxA2 synthesis amounted to 60.2%.
`CC1=C(C(=O)OCCCc2cccnc2)C(CCc2ccccc2)C(C(=O)OCCCc2cccnc2)=C(C)N1` [Compound 12, 2,6-dimethyl-4-(2-phenylethyl)-1,4-dihydropyridine-3,5-dicarboxylic acid bis[3-(3-pyridyl)propyl]ester]: the IC50 in experiment [1] is above 30 µM.
Turning to `O=C(O)/C=C/c1ccc(Cn2ccnc2)cc1` [OKY-046, reference compound], in the experiment on TxA2 synthesis, the “TxA2 synthesis inhibiting action Rate … (%)” value came out at 86.4%.
Turning to `CC1=C(C(=O)OCCCc2cccnc2)C(C2CCCCC2)C(C(=O)OCCCc2cccnc2)=C(C)N1` [Compound 8, 2,6-dimethyl-4-cyclohexyl-1,4-dihydropyridine-3,5-dicarboxylic acid bis[3-(3-pyridyl)propyl]ester], in the experiment on TxA2 synthesis, the “TxA2 synthesis inhibiting action Rate … (%)” value is given as 63.0%.
Regarding `CC1=C(C(=O)OCCCc2cccnc2)C(C(C)c2ccccc2)C(C(=O)OCCCc2cccnc2)=C(C)N1` (stereo not drawn) [Compound 7, 2,6-dimethyl-4-(1-phenylethyl)-1,4-dihydropyridine-3,5-dicarboxylic acid bis[3-(3-pyridyl)propyl]ester], the IC50 in experiment [1] was determined as 13 µM.
In the case of `CC1=C(C(=O)OCc2cccnc2)C(c2ccccc2[N+](=O)[O-])C(C(=O)OCc2cccnc2)=C(C)N1` [Control 2, reference compound], the “TxA2 synthesis inhibiting action Rate … (%)” value in the experiment with TxA2 synthesis is listed as 77.9%.
`CC1=C(C(=O)OCCCc2cccnc2)C(CC(C)CC(C)(C)C)C(C(=O)OCCCc2cccnc2)=C(C)N1` (stereo not drawn) [Compound 22, 2,6-dimethyl-4-(2,4,4-trimethylpentyl)-1,4-dihydropyridine-3,5-dicarboxylic acid bis[3-(3-pyridyl)propyl]ester]: the IC50 in experiment [3] is 54 µM. In experiment [2] (setting [6]), the “Effect for overcoming resistance T/V (%)” value is reported as 150%, the “Life prolonging rate T/C (%)” value was 148% and the “Mean days of survival” value worked out at 15.8 days.
For the compound `CCOC(=O)C1CC1C1C(C(=O)OCCCc2cccnc2)=C(C)NC(C)=C1C(=O)OCCCc1cccnc1` (stereo not drawn) [Compound 9, 2,6-dimethyl-4-(2-ethoxycarbonylcyclopropyl)-1,4-dihydropyridine-3,5-dicarboxylic acid bis[3-(3-pyridyl)propy]ester], the IC50 in experiment [1] stood at 11.5 µM.
Consider `CC1=C(C(=O)OCCCCc2cccnc2)C(C(C)C)C(C(=O)OCCCCc2cccnc2)=C(C)N1` [Compound 30, 2,6-dimethyl-4-isopropyl-1,4-dihydropyridine-3,5-dicarboxylic acid bis[4-(3-pyridyl)butyl]ester], for which the “TxA2 synthesis inhibiting action Rate … (%)” value in the experiment with TxA2 synthesis came to 69.7%.
